Measurements reported in ChEMBL document CHEMBL3745709, “Synthesis of novel ethyl 1-ethyl-6-fluoro-7-(fatty amido)-1,4-dihydro-4-oxoquinoline-3-carboxylate derivatives and their biological evaluation” (Bioorg Med Chem Lett, 2016).
In brackets after ≈: the same amount, converted by molar mass.

Legend:
[1] = Cytotoxicity against human DU145 cells assessed as reduction in cell viability by MTT assay; format: functional, cell-based; settings: DU-145
A549 [2] = assay: Cytotoxicity against human A549 cells assessed as reduction in cell viability by MTT assay; format: functional, cell-based
[3] = Cytotoxicity against human SKOV3 cells assessed as reduction in cell viability by MTT assay; format: functional, cell-based; settings: SK-OV-3
MCF7 = assay: Cytotoxicity against human MCF7 cells assessed as reduction in cell viability by MTT assay; format: functional, cell-based
[4] = Cytotoxicity against human IMR90 cells assessed as reduction in cell viability by MTT assay; format: cell-based; settings: IMR-90
IMR-90 [5] = assay: Selectivity index, ratio of IC50 for human IMR90 cells to IC50 for human DU145 cells; format: functional
A549 [6] = assay: Selectivity index, ratio of IC50 for human IMR90 cells to IC50 for human A549 cells; format: functional
SK-OV-3 = assay: Selectivity index, ratio of IC50 for human IMR90 cells to IC50 for human SKOV3 cells; format: functional
IMR-90 [7] = assay: Selectivity index, ratio of IC50 for human IMR90 cells to IC50 for human MCF7 cells; format: functional
[8] = Antioxidant activity assessed as DPPH free radical scavenging activity; format: physicochemical
Micrococcus luteus = assay: Antibacterial activity against Micrococcus luteus MTCC 2470 assessed as inhibition zone after 24 hrs at 30 degC by well diffusion method; format: functional; settings: MTCC 2470, 24 h
Staphylococcus aureus [9] = assay: Antibacterial activity against Staphylococcus aureus MTCC 96 […] after 24 hrs at 30 degC by well diffusion method; format: functional; settings: MTCC 96, 24 h
Staphylococcus aureus [10] = assay: Antibacterial activity against Staphylococcus aureus MLS-16 MTCC 2940 assessed as inhibition zone after 24 hrs at 30 degC by well diffusion method; format: functional; settings: MLS-16 MTCC 2940, 24 h
Bacillus subtilis = assay: Antibacterial activity against Bacillus subtilis MTCC 121 assessed as inhibition zone after 24 hrs at 30 degC by well diffusion method; format: functional; settings: MTCC 121, 24 h
Escherichia coli = assay: Antibacterial activity against Escherichia coli MTCC 739 assessed as inhibition zone after 24 hrs at 30 degC by well diffusion method; format: functional; settings: MTCC 739, 24 h
Pseudomonas aeruginosa = assay: Antibacterial activity against Pseudomonas aeruginosa MTCC 2453 assessed as inhibition zone after 24 hrs at 30 degC by well diffusion method; format: functional; settings: MTCC 2453, 24 h
Raoultella planticola = assay: Antibacterial activity against Klebsiella planticola MTCC 530 assessed as inhibition zone after 24 hrs at 30 degC by well diffusion method; format: functional; settings: MTCC 530, 24 h
Candida albicans = assay: Antifungal activity against Candida albicans MTCC 3017 […] after 24 hrs at 30 degC by well diffusion method; format: functional; settings: MTCC 3017, 24 h

EC50 [8] | MIC (Micrococcus luteus) | MIC (Staphylococcus aureus [9]) | MIC (Staphylococcus aureus [10]) | MIC (Bacillus subtilis) | MIC (Escherichia coli) | MIC (Pseudomonas aeruginosa) | MIC (Candida albicans) | Structure (SMILES) | IC50 [1] | IC50 (A549 [2]) | IC50 [3] | IC50 (MCF7) | IC50 [4] | Ratio IC50 (IMR-90 [5]) | Ratio IC50 (A549 [6]) | Ratio IC50 (SK-OV-3) | Ratio IC50 (IMR-90 [7]) | MIC (Raoultella planticola)
Not Active | > 125 µg/mL | > 125 µg/mL | > 125 µg/mL | > 125 µg/mL | > 125 µg/mL | > 125 µg/mL | > 125 µg/mL | CCCCCCCCCCCC(=O)Nc1cc2c(cc1F)c(=O)c(C(=O)OCC)cn2CC | 12.1 µM | 10.3 µM | 9.8 µM | 11.2 µM | 79.8 µM | 6.6 | 7.7 | 8.1 | 7.1 | > 125 µg/mL
798.8 µg/mL (≈ 1470 µM) | > 125 µg/mL | > 125 µg/mL | > 125 µg/mL | > 125 µg/mL | > 125 µg/mL | > 125 µg/mL | > 125 µg/mL | CCCCCCCCCCCCCCCCCC(=O)Nc1cc2c(cc1F)c(=O)c(C(=O)OCC)cn2CC | 37.1 µM | 32.6 µM | 35.2 µM | 28.4 µM |  |  |  |  |  | > 125 µg/mL
750.7 µg/mL (≈ 1380 µM) | > 125 µg/mL | > 125 µg/mL | > 125 µg/mL | > 125 µg/mL | > 125 µg/mL | > 125 µg/mL | > 125 µg/mL | CCCCCCCC/C=C/CCCCCCCC(=O)Nc1cc2c(cc1F)c(=O)c(C(=O)OCC)cn2CC |  |  |  |  |  |  |  |  |  | > 125 µg/mL
